# Tests used:
# [1] = molecular target: T1, Beta-1 adrenergic receptor (Homo sapiens, UniProt P08588); test: Agonistic activity against cloned human beta1-AR (beta-1-adrenergic receptor) in CHO cells; format: functional, cell-based
# Target sequence in this assay (P08588 whole entry): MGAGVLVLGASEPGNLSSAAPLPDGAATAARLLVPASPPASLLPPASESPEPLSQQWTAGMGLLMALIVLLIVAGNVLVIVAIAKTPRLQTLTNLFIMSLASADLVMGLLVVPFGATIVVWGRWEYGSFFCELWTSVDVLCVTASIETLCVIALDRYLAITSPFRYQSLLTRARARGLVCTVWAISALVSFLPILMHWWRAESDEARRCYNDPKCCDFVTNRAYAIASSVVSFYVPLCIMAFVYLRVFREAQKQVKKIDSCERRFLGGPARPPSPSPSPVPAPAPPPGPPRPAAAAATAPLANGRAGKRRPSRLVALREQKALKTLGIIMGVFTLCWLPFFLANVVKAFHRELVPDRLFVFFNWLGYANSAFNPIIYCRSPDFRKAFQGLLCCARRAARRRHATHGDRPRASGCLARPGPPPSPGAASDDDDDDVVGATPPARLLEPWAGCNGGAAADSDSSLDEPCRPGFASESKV
# [2] = molecular target: Beta-2 adrenergic receptor (Homo sapiens, UniProt P07550); test: Agonistic activity against cloned human […] (beta-2-adrenergic receptor) in CHO cells; format: functional, cell-based
# [3] = molecular target: T2, Beta-3 adrenergic receptor (Homo sapiens, UniProt P13945); test: Agonistic activity against cloned human beta3-AR (beta-3-adrenergic receptor) in CHO cells; format: functional, cell-based
# Target sequence in this assay (P13945 whole entry): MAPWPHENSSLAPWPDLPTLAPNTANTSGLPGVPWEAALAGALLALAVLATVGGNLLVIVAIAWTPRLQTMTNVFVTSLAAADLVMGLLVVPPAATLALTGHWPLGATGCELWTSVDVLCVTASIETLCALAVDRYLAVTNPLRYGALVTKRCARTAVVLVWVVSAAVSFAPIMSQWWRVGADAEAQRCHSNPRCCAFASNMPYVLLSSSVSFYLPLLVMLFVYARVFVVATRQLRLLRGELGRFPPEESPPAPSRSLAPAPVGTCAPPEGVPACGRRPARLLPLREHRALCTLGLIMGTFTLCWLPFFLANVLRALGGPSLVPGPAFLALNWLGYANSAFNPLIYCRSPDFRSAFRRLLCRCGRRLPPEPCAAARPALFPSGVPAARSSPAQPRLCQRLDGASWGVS
# [4] = molecular target: T2, Beta-3 adrenergic receptor; test: Intrinsic activity against cloned human beta3-AR was measured as fractions of the maximal response
# Target sequence in this assay (P13945 whole entry, looked up): as the sequence (P13945 whole entry) above
# [5] = molecular target: T1, Beta-1 adrenergic receptor; test: Intrinsic activity against cloned human beta1-AR was measured as fractions of the maximal response
# Target sequence in this assay (P08588 whole entry, looked up): as the sequence (P08588 whole entry) above
# Sequence of Beta-2 adrenergic receptor (P07550 whole entry): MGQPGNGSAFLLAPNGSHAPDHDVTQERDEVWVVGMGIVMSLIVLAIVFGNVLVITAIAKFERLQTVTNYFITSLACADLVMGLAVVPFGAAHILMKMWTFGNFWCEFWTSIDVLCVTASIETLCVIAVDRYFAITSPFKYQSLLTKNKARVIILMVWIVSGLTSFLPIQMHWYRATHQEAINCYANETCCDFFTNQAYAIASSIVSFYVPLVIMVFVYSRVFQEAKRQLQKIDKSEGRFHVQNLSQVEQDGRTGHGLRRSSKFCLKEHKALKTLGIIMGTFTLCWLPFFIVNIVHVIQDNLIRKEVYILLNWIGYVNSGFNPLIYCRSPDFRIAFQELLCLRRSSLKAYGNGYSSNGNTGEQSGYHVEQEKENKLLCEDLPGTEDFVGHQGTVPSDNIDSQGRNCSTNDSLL
SMILES,EC50 [1] [nM],EC50 [2] [nM],EC50 [3] [nM],Intrinsic activity [4],Intrinsic activity [5]
COc1ccc(S(=O)(=O)N2CCC(NC[C@H](O)COc3cccc4[nH]c(=O)[nH]c34)CC2)cc1OC,> 100000,> 100000,90,–,–
O=S(=O)(c1ccc2oc3ccccc3c2c1)N1CCC(NC[C@H](O)COc2cccc3[nH]c(O)nc23)CC1,–,–,–,0.64,–
CCCCCCNC(=O)Nc1ccc(S(=O)(=O)N2CCC(NC[C@H](O)COc3ccc(O)cc3)CC2)cc1,–,–,> 2000,–,–
O=c1[nH]c2cccc(OC[C@@H](O)CNC3CCN(S(=O)(=O)c4cccc5nsnc45)CC3)c2[nH]1,–,–,850,–,–
CCCCCCNC(=O)Nc1ccc(S(=O)(=O)N2CCC(NC[C@H](O)c3ccc(O)c(NS(C)(=O)=O)c3)CC2)cc1,12,920,5,0.82,0.66
COc1ccc(S(=O)(=O)N2CCC(NC[C@H](O)COc3cccc4[nH]c(O)nc34)CC2)cc1,–,–,–,0.72,0.32
CCCCCCNC(=O)Nc1ccc(S(=O)(=O)N2CCC(NC[C@H](O)COc3cccc4[nH]c(=O)[nH]c34)CC2)cc1,–,–,36,–,–
CCCCOc1ccc(S(=O)(=O)N2CCC(NC[C@H](O)COc3cccc4[nH]c5ccccc5c34)CC2)cc1,> 100000,> 100000,–,0.74,0.04
CCCCOc1ccc(S(=O)(=O)N2CCC(NC[C@H](O)COc3ccc(O)cc3)CC2)cc1,–,–,> 2000,–,–
COc1ccc(S(=O)(=O)N2CCC(NC[C@H](O)COc3ccc(O)cc3)CC2)cc1,10300,> 100000,55,0.74,0.46
O=S(=O)(c1cccc2nsnc12)N1CCC(NC[C@H](O)COc2cccc3[nH]c(O)nc23)CC1,–,–,–,0.75,–
O=c1[nH]c2cccc(OC[C@@H](O)CNC3CCN(S(=O)(=O)c4ccc5oc6ccccc6c5c4)CC3)c2[nH]1,–,–,70,–,–
CCCCCCNC(=O)Nc1ccc(S(=O)(=O)N2CCC(NC[C@H](O)COc3cccc4[nH]c(O)nc34)CC2)cc1,–,–,–,0.74,–
COc1ccc(S(=O)(=O)N2CCC(NC[C@H](O)COc3cccc4[nH]c5ccccc5c34)CC2)cc1,100000,> 100000,–,0.88,0.11
CCCCOc1ccc(S(=O)(=O)N2CC(NC[C@H](O)c3ccc(O)cc3)C2)cc1,1600,920,30,0.82,0.49
COc1ccc(S(=O)(=O)N2CCC(NC[C@H](O)COc3cccc4[nH]c5ccccc5c34)CC2)cc1OC,> 100000,> 100000,–,1.2,0.14
CCCCOc1ccc(S(=O)(=O)N2CCC(NC[C@H](O)COc3cccc4[nH]c5ccccc5c34)C2)cc1 (stereo not given in full),–,–,> 2000,–,–
COc1ccc(S(=O)(=O)N2CCC(NC[C@H](O)COc3cccc4[nH]c(=O)[nH]c34)CC2)cc1,> 100000,> 100000,120,–,–
CS(=O)(=O)Nc1cc([C@@H](O)CNC2CCN(S(=O)(=O)c3ccc4oc5ccccc5c4c3)CC2)ccc1O,–,–,120,0.88,–
CCCCOc1ccc(S(=O)(=O)N2CC(NC[C@H](O)COc3cccc4[nH]c5ccccc5c34)C2)cc1,–,–,> 2000,–,–
CCCCOc1ccc(S(=O)(=O)N2CC(NC[C@H](O)c3ccc(O)c(NS(C)(=O)=O)c3)C2)cc1,–,–,1100,0.78,–
CCC(C)(C)c1ccc(S(=O)(=O)N2CCC(NC[C@H](O)COc3cccc4[nH]c5ccccc5c34)CC2)cc1,–,–,920,1,–
CCCCOc1ccc(S(=O)(=O)N2CCC(NC[C@H](O)c3ccc(O)c(NS(C)(=O)=O)c3)C2)cc1 (stereo not given in full),–,–,360,0.79,–
COc1ccc(S(=O)(=O)N2CCC(NC[C@H](O)COc3cccc4[nH]c(O)nc34)CC2)cc1OC,–,–,–,0.87,0.33

# Source: ChEMBL document CHEMBL1145724, “Cyclic amine sulfonamides as linkers in the design and synthesis of novel human beta(3) adrenergic receptor agonists” (Bioorg Med Chem Lett, 2003)
